# US11980648B2, “Compositions including ginsenoside 20(S)-Rg3 and methods of using ginsenoside 20(S)-Rg3 to inhibit alpha herpesvirus” (MIDDLE TENNESSEE STATE UNIVERSITY, priority 2020, dated 2024)
# Values joined by “and” are separate entries in the source; they are usually repeats but may differ in a detail not shown here. Equal entries are not always repeated.
# How the values were obtained:
# HSV-1 [1] = assay: Virus inhibition, HSV-1 on Vero cells (PrestoBlue); assay type: cell-based, herpes simplex virus type 1 (MacIntyre strain); conditions: at the non-toxic concentration of Table 1; MOI 0.1; compound and virus added simultaneously; parentheses = greater cell death than virus alone
# Description: (§1) Viruses and Quantification. Herpes simplex virus type 1 (HSV-1, MacIntyre strain, ATCC, VR-539) or herpes simplex virus type 2 (HSV-2, ATCC, VR-734) were used in these studies. Virus titer was determined by plaque assay. Briefly, following 2 hour-adsorption of various virus dilutions onto a Vero cell monolayer in a 24-well plate, the medium was removed and cells were overlaid with 1.5% carboxymethylcellulose (Sigma Chemical Company, St. Louis, Mo.) and incubated 48 hours at 37° C. with 5% CO2. After incubation, cells were fixed with methanol, stained with Giemsa (Sigma Chemical Company, St. Louis, Mo.) and plaques were counted. Each virus dilution was prepared in quadruplicate.
# (§2) Cytotoxicity and Virus Inhibition. All ginsenosides, isomers, and protopanaxadiols were evaluated for toxic effects on Vero cells prior to anti-viral testing. Cells were seeded at 5000 cells/well in a black 96-well plate with clear bottom in a volume of 100 μL and allowed to attach for 24 hours. The P. ginseng compounds were prepared in DMSO at 100 μM and were taken through serial two-fold dilutions to determine the concentration when the rate of cell death was less than 10% compared to control, untreated cells. Each dilution was tested in three wells and all assays were repeated three times. Following a 48 hour-incubation at 37° C. in 5% CO2, 11 μL of PrestoBlue (Invitrogen, Carlsbad, Calif.) was added to each well and the plate was incubated for an additional 30 minutes. PrestoBlue determines cell viability by changing from blue to red as resazurin is reduced to resorufin by viable cells. Following the PrestoBlue incubation, fluorescence was determined by spectrophotometric reading using Soft Max Pro (Molecular Diagnostics, San Jose, Calif., USA).
# (§3) For cytotoxicity testing, 4 μL of dilutions of the ginsenosides or protopanaxadiols were added to 396 μL of medium 199 and 100 μL of this mixture was added to each of three wells. For anti-viral testing, 4 μL of the non-toxic reagent and 4 μL of HSV-1 or HSV-2 diluted to an MOI of 0.1 were added to 392 μL of medium 199 and 100 μL of this mixture was added to each of three wells. Virus inhibition was determined by comparing the cell death of reagent-exposed cells with cell death of control cells only receiving virus. The 50% inhibitory concentration (IC50) was determined through a series of two-fold dilutions and calculation by linear regression analysis.
# Vero cells = assay: Cytotoxicity on Vero cells (PrestoBlue); assay type: cell-based; conditions: for Cytotoxicity (non-toxic concentration): concentration causing less than 10% cell death compared with controls, Vero cells, 48 hour incubation, tested from 100 μM in 2-fold dilutions
# Description: Cells. Vero cells (American Type Culture Collection (ATCC), Manassas, VA, CCL-81) were maintained in medium 199 (Sigma Chemical Company, St. Louis, MO) that was supplemented with 8% fetal bovine serum (Invitrogen, Carlsbad, CA), 1.25 μg/mL fungizone (Invitrogen, Carlsbad, CA) and penicillin-streptomycin, 1000 U/mL and 1 mg/mL respectively (Sigma Chemical Company, St. Louis, MO). Cells were passed weekly using 0.1% trypsin (Sigma Chemical Company, St. Louis, MO) to detach the cells from the flasks. Cell quantification was done by trypan blue exclusion.
# as §2, with “The P. ginseng compounds were prepared in DMSO at 100 μM and were taken through serial two-fold dilutions to determine the concentration when the rate of cell death was less than 10% compared to control, untreated cells.” left out
# as §3
# HSV-1 [2] = assay: Plaque reduction of HSV-1 on Vero cell monolayer; assay type: cell-based, herpes simplex virus type 1 (MacIntyre strain); conditions: valacyclovir 16 μM, 20(S)-Rg3 50 μM, about 50 PFU/well, 48 hours
# Description: as §1
# The plaque assay procedure also was used to evaluate the percent plaque reduction; the only procedural change was that a constant virus concentration was used (50 plaque forming units (PFU)/well). Plaque reduction was measured by comparing the control (virus only), with valacyclovir (16 μM) with virus or 20(S)-Rg3 (50 μM) with virus. Sample wells were evaluated in quadruplicate. Following the 2 hour-virus adsorption, the methylcellulose-medium containing the same concentrations of valacyclovir or Rg3 was added to the appropriate wells. After 48 hours, plaques were fixed, stained and counted.
# HSV-1 [3] = assay: Time studies of HSV-1 inhibition (PrestoBlue); assay type: cell-based, herpes simplex virus type 1; conditions: Human alphaherpesvirus 1; HSV-1 incubated with compound 0 to 4 hours prior to addition to cells; valacyclovir 16 μM; read-out: percent inhibition of HSV-1
# Description: Time Studies. For virus inhibition studies described above, reagent 20(S)-Rg3 and virus were added to cells simultaneously. To evaluate the potential mode of action of Rg3, various combinations of valacyclovir, Rg3 and HSV-1 were tested at different time periods. The following combinations were evaluated at both one hour and four hours: • Virus applied to cells first (for one hour or four hours), followed by addition of valacyclovir, Rg3 or both valacyclovir and Rg3 to the cells; • Valacyclovir or Rg3 or both valacyclovir and Rg3 applied to cells first (for one or four hours), followed by virus; • Valacyclovir or Rg3 incubated together with virus first for one or four hours then added to cells.
# All procedures described for evaluation of virus inhibition were followed in identical fashion as outlined for the PrestoBlue procedure except valacyclovir was used at a constant concentration of 16 μM and 20(S)-Rg3 at 50 μM.
# coxsackie B 3 virus = conditions: 100 μg/mL; cited from earlier work
# human rhinovirus 3 = conditions: 100 μg/mL; cited from earlier work
molecule,measurement,setting,value
"CC(C)=CCC[C@@](C)(O)C1CC[C@]2(C)C1[C@H](O)CC1[C@@]3(C)CC[C@H](O[C@@H]4OC(CO)[C@@H](O)[C@@H](O)C4O[C@@H]4OC(CO)[C@@H](O)[C@@H](O)C4O)C(C)(C)C3CC[C@]12C (stereo partly drawn) [20(R)-Rg3, 20(R)-ginsenoside-Rg3]",Percent Inhibition of HSV-1,HSV-1 [1],22.7%
"CC(C)[C@H](N)C(=O)OCCOCn1cnc2c(=O)[nH]c(N)nc21 [Valacyclovir, reference compound]",Percent Cell Death,"Vero cells; African green monkey, 48 h, 16 μM",1.2±0.4%
same,Percent Reduction of plaques compared to the control,HSV-1 [2],85.7%
same,Number of Plaques,HSV-1 [2]; ± standard error,8.1 ± 1.1
same,inhibition at 16 µM,HSV-1 [3],52.3 to 54.7%
CC(C)=CCC[C@](C)(O[C@@H]1O[C@H](CO[C@@H]2OC[C@H](O)[C@H](O)[C@H]2O)[C@@H](O)[C@H](O)[C@H]1O)[C@H]1CC[C@]2(C)[C@@H]1[C@H](O)C[C@@H]1[C@@]3(C)CC[C@H](O[C@@H]4O[C@H](CO)[C@@H](O)[C@H](O)[C@H]4O[C@@H]4O[C@H](CO)[C@@H](O)[C@H](O)[C@H]4O)C(C)(C)[C@@H]3CC[C@]12C [Rb2],Percent Inhibition of HSV-1,HSV-1 [1],26.4%
"CC(C)=CCC[C@](C)(O)[C@H]1CC[C@]2(C)[C@@H]1[C@H](O)C[C@@H]1[C@@]3(C)CC[C@H](O)C(C)(C)[C@@H]3CC[C@]12C [20(S)-protopanaxadiol, reference compound]",toxicity,Vero cells; 25 μM,non-toxic
same,Cytotoxicity (non-toxic concentration),Vero cells,12.5 µM
20(S)-Rh2,Percent Inhibition of HSV-1,HSV-1 [1],46.2%
CC(C)=CCC[C@](C)(O[C@@H]1O[C@H](CO[C@@H]2O[C@H](CO)[C@@H](O)[C@H](O)[C@H]2O)[C@@H](O)[C@H](O)[C@H]1O)[C@H]1CC[C@]2(C)[C@@H]1[C@H](O)C[C@@H]1[C@@]3(C)CC[C@H](O[C@@H]4O[C@H](CO)[C@@H](O)[C@H](O)[C@H]4O[C@@H]4O[C@H](CO)[C@@H](O)[C@H](O)[C@H]4O)C(C)(C)[C@@H]3CC[C@]12C [Rb1],Percent Inhibition of HSV-1,HSV-1 [1],23% and 23.3%
CC(C)=CCC[C@](C)(O[C@@H]1O[C@H](CO[C@@H]2OC[C@@H](O)[C@H](O)[C@H]2O)[C@@H](O)[C@H](O)[C@H]1O)[C@H]1CC[C@]2(C)[C@@H]1[C@H](O)C[C@@H]1[C@@]3(C)CC[C@H](O[C@@H]4O[C@H](CO)[C@@H](O)[C@H](O)[C@H]4O[C@@H]4O[C@H](CO)[C@@H](O)[C@H](O)[C@H]4O)C(C)(C)[C@@H]3CC[C@]12C [Rb3],Percent Inhibition of HSV-1,HSV-1 [1],30.9%
CC(C)=CCC[C@](C)(O)[C@H]1CC[C@]2(C)[C@@H]1[C@H](O)C[C@@H]1[C@@]3(C)CC[C@H](O)C(C)(C)[C@@H]3[C@@H](O[C@@H]3O[C@H](CO)[C@@H](O)[C@H](O)[C@H]3O[C@@H]3O[C@@H](C)[C@H](O)[C@@H](O)[C@H]3O)C[C@]12C [Rg2],effect on coxsackie B 3 virus,coxsackie B 3 virus,inhibitory effects
same,effect on human rhinovirus 3,human rhinovirus 3,inhibitory effects
CC(C)=CCC[C@](C)(O[C@@H]1O[C@H](CO)[C@@H](O)[C@H](O)[C@H]1O)[C@H]1CC[C@]2(C)[C@@H]1[C@H](O)C[C@@H]1[C@@]3(C)CC[C@H](O)C(C)(C)[C@@H]3[C@@H](O[C@@H]3O[C@H](CO)[C@@H](O)[C@H](O)[C@H]3O)C[C@]12C [Rg1],Percent Inhibition of HSV-1,HSV-1 [1],13.2%
"CC(C)=CCC[C@@](C)(O)[C@H]1CC[C@]2(C)[C@@H]1[C@H](O)C[C@@H]1[C@@]3(C)CC[C@H](O)C(C)(C)[C@@H]3CC[C@]12C [20(R)-protopanaxadiol, reference compound]",Cytotoxicity (non-toxic concentration),Vero cells,12.5 µM
same,Percent Inhibition of HSV-1,HSV-1 [1],14.4%
